Laboratory results as given in the supplement of paper PMC10307832.

Experiments:
Assay in all cases: relative viability (nuclei count vs DMSO), 5 days (fraction); higher = more cells survive
[1] = compound: COc1cc2nc(N3CCCN(C)CC3)nc(NC3CCN(Cc4ccccc4)CC3)c2cc1OC + CC1(C)CCC(c2ccc(Cl)cc2)=C(CN2CCN(c3ccc(C(=O)NS(=O)(=O)c4ccc(N[C@H](CCN5CCOCC5)CSc5ccccc5)c(S(=O)(=O)C(F)(F)F)c4)cc3)CC2)C1 [Navitoclax] (partner 0.5 µM)
Method in brief: (§1)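 Lung cancer cell lines, seeded in 1536-well plates, were treated the following day by pin tool with a single drug or with five library-drug doses (not always all listed) in √10 steps on top of a fixed anchor-drug dose. Cells were fixed and nuclei stained in one step after 5 days, and nuclei were counted. Relative viability is the nuclei count for treated wells divided by that for vehicle wells, reported as medians of duplicate plates.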

AZD6482 + Linsitinib = compound: Cc1cc([C@@H](C)Nc2ccccc2C(=O)O)c2nc(N3CCOCC3)cc(=O)n2c1 [AZD6482] + C[C@]1(O)C[C@@H](c2nc(-c3ccc4ccc(-c5ccccc5)nc4c3)c3c(N)nccn32)C1 [Linsitinib] (partner 1 µM)
Method in brief: as §1

AZD6482 + Crizotinib = compound: Cc1cc([C@@H](C)Nc2ccccc2C(=O)O)c2nc(N3CCOCC3)cc(=O)n2c1 [AZD6482] + C[C@@H](Oc1cc(-c2cnn(C3CCNCC3)c2)cnc1N)c1c(Cl)ccc(F)c1Cl [Crizotinib] (partner 1 µM)
Method in brief: as §1

[2] = compound: COc1cc2nc(N3CCCN(C)CC3)nc(NC3CCN(Cc4ccccc4)CC3)c2cc1OC + CC(=O)c1c(C)c2cnc(Nc3ccc(N4CCNCC4)cn3)nc2n(C2CCCC2)c1=O [Palbociclib] (partner 0.5 µM)
Method in brief: as §1

Cell Line	relative viability ([1]; first compound 0.2 µM)	relative viability ([1]; first compound 0.6325 µM)	relative viability ([1]; first compound 2 µM)	relative viability ([1]; first compound 6.325 µM)	relative viability (AZD6482 + Linsitinib; first compound 0.08 µM)	relative viability (AZD6482 + Linsitinib; first compound 0.253 µM)	relative viability (AZD6482 + Linsitinib; first compound 0.8 µM)	relative viability (AZD6482 + Linsitinib; first compound 2.53 µM)	relative viability (AZD6482 + Linsitinib; first compound 8 µM)	relative viability (AZD6482 + Crizotinib; first compound 0.08 µM)	relative viability (AZD6482 + Crizotinib; first compound 0.253 µM)	relative viability (AZD6482 + Crizotinib; first compound 0.8 µM)	relative viability (AZD6482 + Crizotinib; first compound 2.53 µM)	relative viability (AZD6482 + Crizotinib; first compound 8 µM)	relative viability ([2]; first compound 0.2 µM)	relative viability ([2]; first compound 0.6325 µM)	relative viability ([2]; first compound 2 µM)	relative viability ([2]; first compound 6.325 µM)
HCC-366	1.04	1.12	1.21	1.05	0.383	0.438	0.477	0.151	0.141	0.304	0.447	0.395	0.453	0.472	0.373	0.404	0.396	0.409
HCC-827	1.01	1.01	0.988	1.01	0.939	0.944	0.926	0.861	0.775	0.894	0.958	0.936	0.885	0.63	0.478	0.448	0.437	0.446
HOP-62	0.856	1.07	1.15	1.02	1.1	0.836	1.12	0.67	0.841	1.07	0.897	0.609	0.782	0.751	0.436	0.386	0.506	0.491
IA-LM	0.761	0.689	1.01	0.64	0.861	0.732	0.786		0.969	0.968	1.06	1.01		1.08				
LC-2-ad	0.363	0.447	0.444	0.397	0.61	0.48	0.605	0.318	0.511	0.434		0.476	0.404	0.367	0.509	0.533	0.444	0.52
LCLC-97TM1	0.37		0.34	0.444	0.189	0.158	0.168	0.134	0.169	0.479	0.327	0.298	0.294	0.234	0.219	0.231	0.254	0.238
LCLC-103H					0.869	0.73	0.72	0.605	0.572	0.909	0.994	0.911	0.847	0.699	0.479	0.47	0.452	0.444
LK-2	0.91	0.843	1.16	0.637	0.587	0.521	0.791	0.513	0.421	0.24		0.263	0.244	0.239	0.658	0.884	0.841	0.598
LOU-NH91	0.717	0.688	0.578	0.742	0.782	0.913	0.842	0.598	0.665	0.709	0.725	0.74	0.564	0.563	0.464	0.424	0.588	0.552
NCI-H358					0.545	0.795	0.679	0.293	0.528	0.514	0.592	0.566	0.417	0.383	0.147	0.118	0.141	0.139
NCI-H522															0.716	1.18	0.859	0.915
NCI-H596	1.03	0.851	0.949	0.821	0.789	0.979	1.01	0.957	1.02	0.792	0.824	1	0.943	0.871				
NCI-H650					0.856		0.753	0.362	0.491	0.635		0.786	0.442	0.47	0.394	0.307	0.31	0.295
NCI-H661					0.446	0.422	0.398		0.37		1.03	1.02		0.971	0.417	0.429	0.426	0.387
NCI-H1299	1.07	1.04	1.09	1.02	0.907	1.03	1.11	0.803	1.17	0.956	0.946	1.04	0.942	0.989				
NCI-H1395	1.18	1.32	1.17	1.05	0.879	0.639	0.661	0.436	0.732						0.642	0.605	0.618	0.565
NCI-H1563					1.02	0.951	0.908	0.843	0.759	0.783	0.821	0.82	0.663	0.769				
NCI-H1648																0.293		0.272
NCI-H1650	1.25	1.07	1.48	1.07						0.907		0.958	0.662	0.653	0.243	0.448	0.328	0.287
NCI-H1703	1.25	0.92	1.11	0.41	1.01	0.398	0.478	0.249	0.47	0.583	0.505	0.396	0.245	0.343				
NCI-H1793	0.49	0.489	0.492	0.457	0.325	0.503	0.615		0.46						0.32	0.312	0.316	0.292
NCI-H2170	0.707	0.577	0.494	0.582						1.11	1.15	1.23	1.05	0.851	0.383	0.406	0.37	0.352
NCI-H2342															0.521	0.58	0.549	0.527
SW 900															0.538	0.442	0.566	0.46
